# Laboratory results published in patent USRE38117E1, “Trioxane dimer compound having antiproliferative and antitumor activities” (Hauser, Inc., priority 1995, dated 2003).
# Experiments:
# Type in all cases: cell-based
# [1] = tested on: MOLT-4; test: NCI 60 cell line screen (SRB), Leukemia
# [2] = tested on: RPMI-8226; test: NCI 60 cell line screen (SRB), Leukemia; details: RPMI-8226 (Leukemia)
# [3] = tested on: SR; test: NCI 60 cell line screen (SRB), Leukemia
# [4] = tested on: A549/ATCC; test: NCI 60 cell line screen (SRB), Non-Small Cell Lung Cancer
# [5] = tested on: EKVX; test: as above
# [6] = tested on: HOP-92; test: as above; details: HOP-92 (Non-Small Cell Lung Cancer)
# [7] = tested on: NCI-H226; test: as above
# [8] = tested on: NCI-H322M; test: as above
# [9] = tested on: NCI-H460; test: as above
# [10] = tested on: COLO 205; test: NCI 60 cell line screen (SRB), Colon Cancer; details: COLO 205 (Colon Cancer)
# [11] = tested on: HCC-2998; test: NCI 60 cell line screen (SRB), Colon Cancer; details: HCC-2998 (Colon Cancer)
# [12] = tested on: HCT-116; test: NCI 60 cell line screen (SRB), Colon Cancer; details: HCT-116 (Colon Cancer)
# [13] = tested on: SF-295; test: NCI 60 cell line screen (SRB), CNS Cancer; details: SF-295 (CNS Cancer)
# [14] = tested on: SNB-19; test: NCI 60 cell line screen (SRB), CNS Cancer; details: SNB-19 (CNS Cancer)
# [15] = tested on: SNB-75; test: NCI 60 cell line screen (SRB), CNS Cancer; details: SNB-75 (CNS Cancer)
# [16] = tested on: U251; test: NCI 60 cell line screen (SRB), CNS Cancer
# [17] = tested on: MALME-3M; test: NCI 60 cell line screen (SRB), Melanoma; details: MALME-3M (Melanoma)
# [18] = tested on: M14; test: NCI 60 cell line screen (SRB), Melanoma
# [19] = tested on: SK-MEL-2; test: NCI 60 cell line screen (SRB), Melanoma; details: SK-MEL-2 (Melanoma)
# [20] = tested on: SK-MEL-5; test: NCI 60 cell line screen (SRB), Melanoma; details: SK-MEL-5 (Melanoma)
# [21] = tested on: UACC-62; test: NCI 60 cell line screen (SRB), Melanoma; details: UACC-62 (Melanoma)
# [22] = tested on: OVCAR-3; test: NCI 60 cell line screen (SRB), Ovarian Cancer; details: OVCAR-3 (Ovarian Cancer)
# [23] = tested on: OVCAR-5; test: NCI 60 cell line screen (SRB), Ovarian Cancer; details: OVCAR-5 (Ovarian Cancer)
# [24] = tested on: OVCAR-8; test: NCI 60 cell line screen (SRB), Ovarian Cancer; details: OVCAR-8 (Ovarian Cancer)
# [25] = tested on: 786-0; test: NCI 60 cell line screen (SRB), Renal Cancer; details: 786-0 (Renal Cancer)
# [26] = tested on: UO-31; test: NCI 60 cell line screen (SRB), Renal Cancer; details: UO-31 (Renal Cancer)
# [27] = tested on: MCF7; test: NCI 60 cell line screen (SRB), Breast Cancer
# [28] = tested on: MCF7/ADR-RES; test: NCI 60 cell line screen (SRB), Breast Cancer
# [29] = tested on: MDA-MB231/ATCC; test: NCI 60 cell line screen (SRB), Breast Cancer
# [30] = tested on: HS 578T; test: NCI 60 cell line screen (SRB), Breast Cancer; details: HS 578T (Breast Cancer)
# [31] = tested on: BT-549; test: NCI 60 cell line screen (SRB), Breast Cancer; details: BT-549 (Breast Cancer)
# [32] = tested on: T-47D; test: NCI 60 cell line screen (SRB), Breast Cancer; details: T-47D (Breast Cancer)
# [33] = tested on: 60 cell line panel; test: NCI 60 cell line screen, values over the whole panel; details: mean value over the cell line panel
# [34] = MOLT-4 (Leukemia), listed as Metaphtalate Dimer
# [35] = MOLT-4 (Leukemia), listed as metaphthalate dimer
structure (smiles),measurement,setting,value
"COC1OC2(C)CCC3CCCC(CCOC(=O)c4cccc(C(=O)OCCC5CCCC6CCC7(C)OOC56C(OC)O7)c4)C31OO2 (stereo not drawn) [Compound 10, Trioxane Bis-ester Dimer]",Log10GI50,[1]; MOLT-4 (Leukemia),−7.68 M
same,Log10LC50,[1]; [34],>−4.30 M
same,Log10TGI,[1]; [34],−6.53 M
same,Log10LC50,[1]; [35],−4.05 M
same,Log10TGI,[1]; [35],−5.80 M
same,drug concentration necessary to achieve primary growth inhibition (percentage growth +50),"[1]; MOLT-4, read from dose response curves FIGS. 10a-10e",less than 10^−7 molar
same,Log10GI50,[2],−6.97 M
same,Log10LC50,[2],>−4.30 M
same,Log10TGI,[2],−5.73 M
same,Log10GI50,[3],<−8.30 M
same,Log10LC50,[3],>−4.30 M
same,Log10TGI,[3],−7.49 M
same,Log10GI50,[4],−5.89 M
same,Log10LC50,[4],>−4.30 M
same,Log10TGI,[4],>−4.30 M
same,Log10GI50,[5],−5.31 M
same,Log10LC50,[5],>−4.30 M
same,Log10TGI,[5],>−4.30 M
same,Log10GI50,[6],−6.01 M
same,Log10LC50,[6],>−4.30 M
same,Log10TGI,[6],−4.64 M
same,Log10GI50,[7],−5.64 M
same,Log10LC50,[7],>−4.30 M
same,Log10TGI,[7],>−4.30 M
same,Log10GI50,[8],>−4.30 M
same,Log10LC50,[8],>−4.30 M
same,Log10TGI,[8],>−4.0 M
same,Log10GI50,[9],−5.76 M
same,Log10LC50,[9],>−4.30 M
same,Log10TGI,[9],>−4.30 M
same,Log10GI50,[10],−6.45 M
same,Log10LC50,[10],−4.48 M
same,Log10TGI,[10],−5.18 M
same,Log10GI50,[11],−5.32 M
same,Log10LC50,[11],>−4.30 M
same,Log10TGI,[11],>−4.30 M
same,Log10GI50,[12],−6.43 M
same,Log10LC50,[12],>−4.30 M
same,Log10TGI,[12],>−4.30 M
same,Log10GI50,[13],−5.01 M
same,Log10LC50,[13],>−4.30 M
same,Log10TGI,[13],>−4.30 M
same,Log10GI50,[14],>−4.30 M
same,Log10LC50,[14],>−4.30 M
same,Log10TGI,[14],>−4.30 M
same,Log10GI50,[15],−5.56 M
same,Log10LC50,[15],>−4.30 M
same,Log10TGI,[15],>−4.30 M
same,Log10GI50,[16],−6.09 M
same,Log10LC50,[16],>−4.30 M
same,Log10TGI,[16],>−4.30 M
same,Log10GI50,[17],−5.56 M
same,Log10LC50,[17],>−4.30 M
same,Log10TGI,[17],>−4.30 M
same,Log10GI50,[18],−5.08 M
same,Log10LC50,[18],>−4.30 M
same,Log10TGI,[18],>−4.30 M
same,Log10GI50,[19],−5.47 M
same,Log10LC50,[19],>−4.30 M
same,Log10TGI,[19],>−4.30 M
same,Log10GI50,[20],−5.57 M
same,Log10LC50,[20],>−4.30 M
same,Log10TGI,[20],>−4.30 M
same,Log10GI50,[21],−5.68 M
same,Log10LC50,[21],>−4.30 M
same,Log10TGI,[21],>−4.30 M
same,Log10GI50,[22],−5.53 M
same,Log10LC50,[22],>−4.30 M
same,Log10TGI,[22],>−4.30 M
same,Log10GI50,[23],−5.68 M
same,Log10LC50,[23],>−4.30 M
same,Log10TGI,[23],>−4.30 M
same,Log10GI50,[24],−6.13 M
same,Log10LC50,[24],>−4.30 M
same,Log10TGI,[24],>−4.30 M
same,Log10GI50,[25],−5.57 M
same,Log10LC50,[25],>−4.30 M
same,Log10TGI,[25],>−4.30 M
same,Log10GI50,[26],−5.96 M
same,Log10LC50,[26],>−4.30 M
same,Log10TGI,[26],>−4.30 M
same,Log10GI50,[27],−5.92 M
same,Log10LC50,[27],>−4.30 M
same,Log10TGI,[27],>−4.30 M
same,Log10GI50,[28],−5.36 M
same,Log10LC50,[28],>−4.30 M
same,Log10TGI,[28],>−4.0 M
same,Log10GI50,[29],−5.27 M
same,Log10LC50,[29],>−4.30 M
same,Log10TGI,[29],>−4.30 M
same,Log10GI50,[30],−6.07 M
same,Log10LC50,[30],>−4.30 M
same,Log10TGI,[30],>−4.30 M
same,Log10GI50,[31],−5.47 M
same,Log10LC50,[31],>−4.30 M
same,Log10TGI,[31],>−4.30 M
same,Log10GI50,[32],−6.76 M
same,Log10LC50,[32],>−4.30 M
same,Log10TGI,[32],>−4.30 M
same,Log10GI50 MG MID,[33],−5.77 M
same,Log10LC50 MG MID,[33],−4.30 M
same,Log10TGI MG MID,[33],−4.52 M
